The text below walks through data of patent publication US8158792B2, “Spiropiperidines for use as tryptase inhibitors” (Janssen Pharmaceutica N.V., priority 2007, dated 2012).

In this assay the target is human lung tryptase. The assay can be described thus: β-Tryptase In-Vitro Enzyme Assay. The assay is classed as biochemical. The following applies: human lung tryptase 1 nM, substrate H-D-HHT-Ala-Arg-pNa 500 μM, pH 7.4, room temperature. Here is the method: The β-tryptase assay was conducted with human lung tryptase (Cortex Biochem #CP3033) in an aqueous buffer (10 mM Tris, 10 mM Hepes, 150 mM NaCl, 0.1% PEG 8000, pH 7.4) using the chromogenic substrate H-D-HHT-Ala-Arg-pNa. […] Percent inhibition was calculated by comparing the initial reaction velocity of samples without inhibitor to those with inhibitor. The initial reaction velocities were analyzed using Microsoft Excel.

Each structure is given as a SMILES string. pIC50: −log10 of the molar value.

Regarding `COc1ccccc1/C=C\C(=O)N1CCC2(CC1)COc1ccc(CN)cc12` [Cpd 183, (Z)-1-(2-methoxy-phenylethenyl)carbonyl-5′-aminomethyl-spiro[piperidine-4,3′-(2H)-benzo[b]furan]], the pIC50 (usually −log10 of the IC50, conventionally taken in molar units) was 5.24.

For `COc1cccc(/C=C/C(=O)N2CCC3(CC2)COc2ccc(CN)cc23)c1` [Cpd 184, (E)-1-(3-methoxy-phenylethenyl)carbonyl-5′-aminomethyl-spiro[piperidine-4,3′-(2H)-benzo[b]furan]], the pIC50 is 6.68.

`COc1ccc(/C=C/C(=O)N2CCC3(CC2)COc2ccc(CN)cc23)cc1` [Cpd 185, (E)-1-(4-methoxy-phenylethenyl)carbonyl-5′-aminomethyl-spiro[piperidine-4,3′-(2H)-benzo[b]furan]] showed a negative logarithm of the IC50 (pIC50) of 5.82.

Molecule `NCc1ccc2c(c1)C1(CCN(C(=O)/C=C/c3ccccc3Cl)CC1)CO2` [Cpd 186, (E)-1-(2-chloro-phenylethenyl)carbonyl-5′-aminomethyl-spiro[piperidine-4,3′-(2H)-benzo[b]furan]] gave a pIC50 of 7.28.

`NCc1ccc2c(c1)C1(CCN(C(=O)/C=C/c3ccc4c(c3)OCO4)CC1)CO2` [Cpd 187, (E)-1-(benzodioxol-5-ylethenyl)carbonyl-5′-aminomethyl-spiro[piperidine-4,3′-(2H)-benzo[b]furan]] gave a pIC50 of 6.10.

With `NCc1ccc2c(c1)C1(CCN(C(=O)/C=C/c3cccc4ccccc34)CC1)CO2` [Cpd 188, (E)-1-(naphthalen-1-ylethenyl)carbonyl-5′-aminomethyl-spiro[piperidine-4,3′-(2H)-benzo[b]furan]], the pIC50 is 6.89.

Regarding `NCc1ccc2c(c1)C1(CCN(C(=O)C=C3c4ccccc4-c4ccccc43)CC1)CO2` [Cpd 189, 1-(1-oxo-2-fluoren-9-ylidene-ethyl)-5′-aminomethyl-spiro[piperidine-4,3′-(2H)-benzo[b]furan]], the pIC50 is 6.42.

Take `NCc1ccc2c(c1)C1(CCN(C(=O)/C(=C/c3ccccc3)c3ccccc3)CC1)CO2` [Cpd 190, (E)-1-(1-phenyl-2-phenylethenyl)carbonyl-5′-aminomethyl-spiro[piperidine-4,3′-(2H)-benzo[b]furan]]: the pIC50 is 6.23.

`Cc1ccccc1/C=C/C(=O)N1CCC2(CC1)COc1ccc(CN)cc12` [Cpd 191, (E)-1-(2-methyl-phenylethenyl)carbonyl-5′-aminomethyl-spiro[piperidine-4,3′-(2H)-benzo[b]furan]] had a pIC50 of 6.60.

`CC1=C(C(=O)N2CCC3(CC2)COc2ccc(CN)cc23)Cc2ccccc21` [Cpd 192, 1-(1-methyl-3H-inden-2-yl)carbonyl-5′-aminomethyl-spiro[piperidine-4,3′-(2H)-benzo[b]furan]] had a pIC50 of 6.82.

For `Cn1c(C(=O)N2CCC3(CC2)COc2ccc(CN)cc23)cc2ccccc21` [Cpd 193, 1-(1-methyl-indol-2-yl)carbonyl-5′-aminomethyl-spiro[piperidine-4,3′-(2H)-benzo[b]furan]], the pIC50 is 6.44. This pIC50 lies 0.38 log units lower than the previous one.

`COc1ccccc1/C=C/C(=O)N1CCC2(CC1)COc1ccc(CN)cc12` [Cpd 194, (E)-1-(2-methoxy-phenylethenyl)carbonyl-5′-aminomethyl-spiro[piperidine-4,3′-(2H)-benzo[b]furan]] showed a pIC50 of 6.82.

Consider `NCc1ccc2c(c1)C1(CCN(C(=O)/C=C/c3c(F)cccc3F)CC1)CO2` [Cpd 195, (E)-1-(2,6-difluoro-phenylethenyl)carbonyl-5′-aminomethyl-spiro[piperidine-4,3′-(2H)-benzo[b]furan]], for which the pIC50 is 6.92. This pIC50 and that of the molecule before are within 0.2 log units of each other.

In turn, `NCc1ccc2c(c1)C1(CCN(C(=O)c3cc4ccccc4oc3=O)CC1)CO2` [Cpd 196, 1-(2-oxo-(2H)-chromen-3-yl)carbonyl-5′-aminomethyl-spiro[piperidine-4,3′-(2H)-benzo[b]furan]] showed a pIC50 of 6.17.

In turn, `COc1cccc2c1OCC(C(=O)N1CCC3(CC1)COc1ccc(CN)cc13)=C2` [Cpd 197, 1-(8-methoxy-(2H)-chromen-3-yl)carbonyl-5′-aminomethyl-spiro[piperidine-4,3′-(2H)-benzo[b]furan]] gave a pIC50 of 6.64.
